The nature of data set [1]: Density by weighing 2.0 mL of ionic liquid. Format: physicochemical. The procedure: (§1) The densities of the ionic liquids […] were determined at 23° C. by placing 2.0 mL of the ionic liquid in a 2.0 mL volumetric tube and weighing by difference. The melting points of the ionic liquids were determined using a Perkin Elmer Pyris 1 Differential Scanning Calorimeter (Boston, Mass.). Typical methods involved using a 10° C./min temperature ramp to determine and identify the first and second order thermal transitions. […] For solid compounds, the melting points were verified using a capillary melting point apparatus. Refractive index measurements were conducted at 23° C. using a Bausch & Lomb Abbe-3L refractometer.

Data set [2] in a line: Surface tension, DuNuoy tensiometer. As to conditions: room temperature (23° C.). It is filed as physicochemical.
Procedure: Surface tension values were measured at room temperature (23° C.) using a Model 20 DuNuoy Tensiometer (Fisher Scientific, Fair Lawn, N.J.) equipped with a platinum-iridium ring with a mean circumference of 5.940 cm and a ring/wire radius of 53.21.
The nature of data set [3]: Refractive index, Abbe refractometer. Format: physicochemical. The procedure:
as §1

The nature of data set [4]: Thermal stability of thin film in fused silica capillary, flame ionization detection. It is filed as physicochemical. The procedure: Thermal stabilities were measured by immobilizing an approximate 0.15-0.20 microns film of the ionic liquid on the inner wall of a fused silica capillary. The capillary was then heated slowly in an oven and a very sensitive flame ionization detector (or mass spectrometer) used to detect any volatilization or decomposition of the ionic liquid. There are several advantages of using this set-up to measure the thermal stabilities of ionic liquids. The thermal stability is measured in the absence of oxygen by purging the capillary with a continuous flow of an inert gas such as helium, hydrogen, or nitrogen. […] Finally, this approach can use mass spectrometry detection to determine the likely volatilization/decomposition products.

Data set [5] can be described thus: Solvation interaction parameters by inverse gas-liquid chromatography (Abraham model). It is filed as physicochemical. The procedure: The preparation of the capillary columns for inverse gas-liquid chromatographic analysis was performed using a previously described procedure. All capillary columns had efficiencies between 2100 to 2500 plates/meter. Characterization of the capillary columns and probe molecule descriptions are listed in supplemental information. Multiple linear regression analysis (MLRA) and statistical calculations were performed using the program Analyse-it (Microsoft, USA).
Solvation Characteristics. We have previously reported that the Abraham solvation model, a linear free energy approach that utilizes inverse gas-liquid chromatography to describe the solvation properties of a liquid, can be used to characterize room temperature ionic liquids. Described by equation 1, the model provides the so-called “interaction parameters” (r, s, a, b, l) by using multiple linear regression analysis to fit the retention factor (k, determined chromatographically) to the solute descriptors (R2, π2^Hα2H, β2^H, log L^16) for a wide variety of probe solute molecules. […]
Previously we characterized a large number of room temperature ionic liquids in terms of multiple solvation interactions using the solvation parameter model, shown in equation log k=c+rR2+sπ2^H+aα2^H+bβ2^H+l log L^16 [3] This approach utilizes inverse gas-liquid chromatography and allows the use of a large number of probe molecules to deconvolute solute retention in terms of the type and magnitude of individual solvation interactions. The solute descriptors (R2, π2^H, α2^H, .β2^H, log L^16) from Equation 3 are obtained from the literature for many probe molecules containing a variety of functional groups. The retention factor is determined chromatographically. The solute descriptors and retention factors are subjected to multiple linear regression analysis to obtain the interaction parameter coefficients (r, s, a, b, l), which ultimately characterize the stationary phase: r is the ability of the diionic liquid containing-stationary phase to interact with .π0 and n electrons of the solute, s is a measure of the dipolarity/polarizability of the diionic liquid containing-stationary phase, a defines the diionic liquid containing-stationary phase hydrogen bond basicity, b is a measure of the hydrogen bond acidity, and l refers to the ability of the diionic liquid containing-stationary phase to separate adjacent members of a homologous series.
Test solutes used to determine interaction parameters and solvation thermodynamics were dissolved in dichloromethane. […] Split injection and flame ionization detection were utilized with injection and detection temperatures of 250° C. Helium was used as the carrier gas with a column inlet pressure of 3.1 psi and flow rate of 1.0 mL/min. Methane was used to determine the dead volume of the column. Multiple linear regression analysis and statistical calculations were performed using the program Analyze-it (Microsoft).

Data set [6] is described as follows: Miscibility/solubility in heptane and water.
Source text: The miscibility/solubility of all ionic liquids in both heptane and water are indicated as well.
The solubility behavior of all thirty-nine geminal dicationic ionic liquids in water and heptane also was explored.
Data set [7] in a line: Solubility assay of N-methyl-D-glucamine in solvents. Format: physicochemical. The text has this: The mechanism for the transformation of N-methyl-D-glucamine into a quaternary ammonium compound is a double nucleophilic substitution with an alkyl halide (FIG. 57). However, the first problem the inventors herein encountered with this approach was the lack of an appropriate solvent.

Like-named read-outs stand apart in the source and are kept apart here.

As for “1,9-di(2,3-dimethylimidazolium)nonane di-tetrafluoroborate [C9(m2im)2-BF4]”, in data set [1] (23° C., Tables 1 and 2), the Density turned out to be 1.31 g/mL. For the same molecule, in data set [2], the “Surface Tension” value is 58.1 dynes/cm. The “Refractive Index” value in data set [3] (23° C., Tables 1 and 2) came to 1.456.
Regarding `C[N+]1(CCCCCCCCC[N+]2(C)CCCC2)CCCC1.O=S(=O)([N-]S(=O)(=O)C(F)(F)F)C(F)(F)F.O=S(=O)([N-]S(=O)(=O)C(F)(F)F)C(F)(F)F` [C9(mpy)2-NTf2, 1,9-di(methylpyrrolidinium)nonane di-bis[(trifluoromethyl)sulfonyl]imidate], the stable liquid range result in data set [4] is “about −4 °C to >400 °C”. Moreover, in data set [5] (40° C.), the “Interaction parameter a (hydrogen bond basicity)” value amounted to 1.98, the “Interaction parameter b (hydrogen bond acidity)” value (“Interaction parameter b” below) is reported as 0.32, the Interaction parameter c was −2.83 and the “Interaction parameter l (dispersion forces)” value (shortened to “Interaction parameter l”) came out at 0.62. In data set [5] (40° C.), the “Interaction parameter r (interaction via nonbonding and π-electrons)” value (“Interaction parameter r” for short) turned out to be 0.27; the “Interaction parameter s (dipolarity/polarizability)” value is given as 1.71. For the same molecule, in data set [5] (70° C.), the “Interaction parameter a (hydrogen bond basicity)” value turned out to be 1.65, the “Interaction parameter b” value is 0.35, the Interaction parameter c was −2.85 and the “Interaction parameter l” value came to 0.48. Moreover, in data set [5] (70° C.), the “Interaction parameter r” value came out at 0.34; the “Interaction parameter s (dipolarity/polarizability)” value came out at 1.52. Moreover, in data set [5] (100° C.), the “Interaction parameter a (hydrogen bond basicity)” value is listed as 1.48, the “Interaction parameter b” value was 0.15, the Interaction parameter c is listed as −2.99 and the “Interaction parameter l” value worked out at 0.42. For the same molecule, in data set [5] (100° C.), the “Interaction parameter r” value is 0.23; the “Interaction parameter s (dipolarity/polarizability)” value worked out at 1.49.
Take `[Br-].[Br-].c1ccc(Cn2cc[n+](CCCCCCCCCCCC[n+]3ccn(Cc4ccccc4)c3)c2)cc1` [C12(benzim)2-Br, 1,12-di(3-benzylimidazolium)dodecane di-bromide]: the “Miscibility with Water” value in data set [6] (listed as 28) was “insoluble in water”.
For the molecule `Cn1cc[n+](CCCCCCCCCCCC[n+]2ccn(C)c2)c1.[Br-].[Br-]` [C12(mim)2-Br, 1,12-di(3-methylimidazolium)dodecane di-bromide], the Density in data set [1] (23° C., Tables 1 and 2) turned out to be 1.27 g/mL. For the same molecule, the “Surface Tension” value in data set [2] was 57.9 dynes/cm. The “Miscibility with Water” value in data set [6] is reported as “Miscible”.
Regarding `C=Cn1cc[n+](CCCCCCCCCCCC)c1.O=S(=O)([N-]S(=O)(=O)C(F)(F)F)C(F)(F)F` [Monomer 3, 1-vinyl-3-dodecylimidazolium bis[(trifluoromethane)sulfonyl]imidate], the Density in data set [1] (monomers/crosslinkers, Table A) was 1.23 g/mL. Besides, in data set [3] (monomers/crosslinkers, Table A), the “Refractive Index” value turned out to be 1.448.
In the case of `CNC[C@H](O)[C@@H](O)[C@H](O)[C@H](O)CO` [N-methyl-D-glucamine], in data set [7], the “solubility in acetone, dimethyl formamide, tetrahydrofuran, ethyl acetate, acetonitrile and dichloromethane” value was “insoluble”; the “solubility in water, dimethylsulfoxide (DMSO)” value is “only soluble”.

Source of the values: patent US8734673B2, “Boron selective ionic liquids and polymeric ionic liquids, methods of making and methods of use thereof” (The University of Toledo, priority 2008, dated 2014).
